From ChEMBL document CHEMBL1221321, “Synthesis and properties of macrolones characterized by two ether bonds in the linker” (Bioorg Med Chem, 2010) come the findings set out here.

Converted amounts (≈) assume the structure as drawn. A value given as a limit tells only on which side of the number the result lay.

Assay [1] deals with Streptococcus pneumoniae. The experiment in a line: Antibacterial activity against efflux-mediated macrolide-resistance Streptococcus pneumoniae Ci137 by broth microdilution method. Format: functional. The note with it: read-out: MIC.
Assay [2] relates to Staphylococcus aureus. The experiment in a line: Antibacterial activity against efflux-mediated macrolide-resistance Staphylococcus aureus PK1 by broth microdilution method. It is filed as functional.
For assay [3], the system named is Haemophilus influenzae. Briefly: Antibacterial activity against Haemophilus influenzae ATCC 49247 by broth microdilution method. Format: functional.
Assay [4] deals with HepG2. The experiment in a line: Cytotoxicity against human HepG2 cells after 24 hrs by MTS assay. Format: cell-based. The note with it: HepG2, 24 h.
The test system of assay [5] is Streptococcus pneumoniae. Briefly: Antibacterial activity against inducible resistance to macrolide and constitutive resistance to lincosamide Streptococcus pneumoniae 134 GR M by broth microdilution method. It is filed as functional.
Assay [6] concerns Streptococcus pneumoniae. The experiment in a line: Antibacterial activity against constitutive MLS resistance Streptococcus pneumoniae 58 by broth microdilution method. Format: functional.
For assay [7], the system named is THP-1. Briefly: Cytotoxicity against human THP1 cells after 24 hrs by MTS assay. Format: cell-based. The conditions noted are these: THP-1, 24 h.
Assay [8] deals with Streptococcus pyogenes. Briefly: Antibacterial activity against constitutive MLS resistance Streptococcus pyogenes 166 GR-Micro by broth microdilution method. Format: functional.
Assay [9] deals with Staphylococcus aureus. Briefly: Antibacterial activity against inducible resistance to macrolide, licosamide, and streptogramin Staphylococcus aureus 90265/97 by broth microdilution method. Format: functional.
Assay [10] has as its system Streptococcus pyogenes. The experiment in a line: Antibacterial activity against efflux-mediated macrolide-resistance Streptococcus pyogenes 2 by broth microdilution method. It is filed as functional.
The test system of assay [11] is Streptococcus pyogenes. Briefly: Antibacterial activity against inducible resistance to macrolide, licosamide and streptogramin Streptococcus pyogenes 11 by broth microdilution method. Format: functional. The conditions noted are these: read-out: MIC.

Regarding `CC[C@H]1OC(=O)[C@H](C)[C@@H](O[C@H]2C[C@@](C)(OC)[C@@H](OCCCOCCCc3ccc4c(c3)c(=O)c(C(=O)O)cn4CCOC)[C@H](C)O2)[C@H](C)[C@@H](O[C@@H]2O[C@H](C)C[C@H](N(C)C)[C@H]2O)[C@](C)(O)C[C@@H](C)CN(C)[C@H](C)[C@@H](O)[C@]1(C)O`, the MIC in assay [1] is no more than 0.125 µg/mL; in assay [2], no more than 0.125 µg/mL; in assay [3], 2 µg/mL (≈ 1.83 µM); in assay [5], no more than 0.125 µg/mL; in assay [6], no more than 0.125 µg/mL; in assay [8], no more than 0.125 µg/mL. The MIC in [9], in [10] and in [11] was no more than 0.125 µg/mL throughout. In addition, the IC50 in assay [4] and in assay [7] was greater than 50 µM throughout.
As for `CC[C@H]1OC(=O)[C@H](C)[C@@H](O[C@H]2C[C@@](C)(OC)[C@@H](OCCCOCCCCc3ccc4c(c3)c(=O)c(C(=O)O)cn4N(C)C)[C@H](C)O2)[C@H](C)[C@@H](O[C@@H]2O[C@H](C)C[C@H](N(C)C)[C@H]2O)[C@](C)(O)C[C@@H](C)CN(C)[C@H](C)[C@@H](O)[C@]1(C)O`, the MIC was no more than 0.125 µg/mL in [1]; no more than 0.125 µg/mL in assay [2]; 4 µg/mL (≈ 3.66 µM) in assay [3]; 0.5 µg/mL (≈ 0.457 µM) in [5]; 0.25 µg/mL (≈ 0.229 µM) in assay [6]; 0.5 µg/mL (≈ 0.457 µM) in assay [8]. Also, the MIC in [9], in assay [10] and in [11] was no more than 0.125 µg/mL throughout. In addition, the figures for the IC50 in assay [4] and in assay [7] were 42 µM and 20 µM, respectively.
Turning to `CC[C@H]1OC(=O)[C@H](C)[C@@H](O[C@H]2C[C@@](C)(OC)[C@@H](OCCCOCCCCc3ccc4c(c3)c(=O)c(C(=O)O)cn4CC)[C@H](C)O2)[C@H](C)[C@@H](O[C@@H]2O[C@H](C)C[C@H](N(C)C)[C@H]2O)[C@](C)(O)C[C@@H](C)CN(C)[C@H](C)[C@@H](O)[C@]1(C)O`, the MIC in assay [1] was no more than 0.125 µg/mL; in assay [2] it was no more than 0.125 µg/mL; in [3], 0.5 µg/mL (≈ 0.464 µM); in [5], no more than 0.125 µg/mL; in [6] it was no more than 0.125 µg/mL; in assay [8], no more than 0.125 µg/mL. Further, the MIC in [9], in assay [10] and in assay [11] was no more than 0.125 µg/mL each time. The figures for the concentration for half-maximal inhibition (IC50) in [4] and in assay [7] were 46 µM and 22 µM, respectively.
For `CC[C@H]1OC(=O)[C@H](C)[C@@H](O[C@H]2C[C@@](C)(OC)[C@@H](OCCCOCCCc3ccc4c(c3)c(=O)c(C(=O)O)cn4CCN(C)C)[C@H](C)O2)[C@H](C)[C@@H](O[C@@H]2O[C@H](C)C[C@H](N(C)C)[C@H]2O)[C@](C)(O)C[C@@H](C)CN(C)[C@H](C)[C@@H](O)[C@]1(C)O`, the MIC was no more than 0.125 µg/mL in [1]; no more than 0.125 µg/mL in assay [2]; 4 µg/mL (≈ 3.61 µM) in assay [3]; 0.25 µg/mL (≈ 0.226 µM) in assay [5]; no more than 0.125 µg/mL in assay [6]; 1 µg/mL (≈ 0.903 µM) in assay [8]. In addition, the MIC in [9] was no more than 0.125 µg/mL; in assay [10], 0.25 µg/mL (≈ 0.226 µM); in assay [11], no more than 0.125 µg/mL. For the same compound, the IC50 in assay [4] and in [7] was greater than 50 µM throughout.
For the compound `CCCn1cc(C(=O)O)c(=O)c2cc(CCCOCCCO[C@H]3[C@H](C)O[C@@H](O[C@H]4[C@H](C)[C@@H](O[C@@H]5O[C@H](C)C[C@H](N(C)C)[C@H]5O)[C@](C)(O)C[C@@H](C)CN(C)[C@H](C)[C@@H](O)[C@](C)(O)[C@@H](CC)OC(=O)[C@@H]4C)C[C@@]3(C)OC)ccc21`, the MIC is no more than 0.125 µg/mL in assay [1]; no more than 0.125 µg/mL in [2]; 2 µg/mL (≈ 1.85 µM) in [3]; no more than 0.125 µg/mL in [5]; no more than 0.125 µg/mL in [6]; 0.25 µg/mL (≈ 0.232 µM) in assay [8]. Besides, the MIC was 0.25 µg/mL (≈ 0.232 µM) in assay [9], no more than 0.125 µg/mL in [10] and no more than 0.125 µg/mL in [11]. In addition, the IC50 in assay [4] worked out at 40 µM; in assay [7], 18 µM.
For `CC[C@H]1OC(=O)[C@H](C)C(=O)[C@H](C)[C@@H](O[C@@H]2O[C@H](C)C[C@H](N(C)C)[C@H]2O)[C@](C)(OC)C[C@@H](C)C(=O)[C@H](C)[C@H]2N(CCCCn3cnc(-c4cccnc4)c3)C(=O)O[C@]12C` [TELITHROMYCIN], the MIC was determined as 0.5 µg/mL (≈ 0.616 µM) in [1]; 0.125 µg/mL (≈ 0.154 µM) in assay [2]; 1 µg/mL (≈ 1.23 µM) in assay [3]; 0.25 µg/mL (≈ 0.308 µM) in [5]; 0.25 µg/mL (≈ 0.308 µM) in [6]; 16 µg/mL (≈ 19.7 µM) in [8]. Besides, the MIC in [9] was no more than 0.125 µg/mL; in assay [10] it was 0.5 µg/mL (≈ 0.616 µM); in assay [11], no more than 0.125 µg/mL.
